# Experimental data from PMC5059489, “Mechanistic evaluation and transcriptional signature of a glutathione S-transferase omega 1 inhibitor” (Nature Communications, 2016).
# Values joined by “and” are separate entries in the source; they are usually repeats but may differ in a detail not shown here. Equal entries are not always repeated.
# What was measured:
# [1] = target: T1, GSTO1 (Homo sapiens, UniProt P78417); assay: In-gel fluorescence competitive CMFDA binding assay, recombinant GSTO1; conditions: inhibition of CMFDA binding
# T1 sequence (P78417 1-241): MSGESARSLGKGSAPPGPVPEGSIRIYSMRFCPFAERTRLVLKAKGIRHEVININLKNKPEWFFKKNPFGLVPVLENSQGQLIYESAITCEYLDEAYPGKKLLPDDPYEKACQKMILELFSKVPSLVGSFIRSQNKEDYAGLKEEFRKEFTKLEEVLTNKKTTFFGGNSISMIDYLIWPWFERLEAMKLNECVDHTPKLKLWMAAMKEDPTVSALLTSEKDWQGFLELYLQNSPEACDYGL
# Description: (§1) Primary screening of GSTO inhibitors was based on competitive inhibition of CMFDA binding to endogenous GSTO. Briefly, HCT116^p53+/+ cells (4 × 10^4 per well) were coated in a 12-well plate. […] Cells were then washed with PBS and lysed using Cell Lytic M buffer (Sigma). […] Gels were immediately scanned on a Typhoon variable mode imager (Amersham Bioscience). Quantification of fluorescent band intensity was done using Image Quant 5.2 software.
# [2] = target: T1, GSTO1; assay: GSTO1 substrate assay (reduction of 4-NPG); conditions: for IC50: read-out: GSTO substrate assay IC50, cluster screening tables
# Experimental: For activity screening, we adapted a GSTO1 substrate assay that relies on the quantification of the reduction of S-(4-nitrophenacyl)glutathione (4-NPG), a GSTO1-specific substrate[17], using recombinant human GSTO1 in a high-throughput screening format.
# Enzyme activity was measured by monitoring the reduction of 4-NPG to 4-nitroacetophenone by GSTO1.
# [3] = system: HCT116p53+/+ cell; assay: MTT cell proliferation at single concentration; format: cell-based, human
# Experimental: Cell proliferation was assessed by a MTT assay. Cancer cells were seeded in 96-well microtitre plates and, after overnight attachment, treated with GSTO1 inhibitors. After 72 h, MTT solution (3 mg ml^−1; 20 μl) was added to each well and cells were incubated for 3 h at 37 °C. After incubation, media from each well was removed and the dark blue formazan crystals formed by live cells were dissolved in DMSO (150 μl per well). The absorbance intensity was measured at 570 nm on a microplate reader (Molecular Devices, Sunnyvale, CA, USA). Cell viability after 24 h treatment was assessed using ApoTox-Glo triplex assay (Promega) according to the manufacturer's protocol. At least three independent dose–response experiments with each concentration tested in triplicate were performed for each cell line.
# [4] = target: T2, endogenous GSTO1 (Homo sapiens, UniProt P78417); assay: In-gel fluorescence competitive CMFDA binding assay, endogenous GSTO1 in HCT116; conditions: 10 µM; inhibition of CMFDA binding, HCT116
# T2 sequence (P78417 1-241): T1 sequence (P78417 1-241)
# Description: as §1
SMILES,GSTO binding assay (% Inhibition at 10 µM) Recombinant [1],GSTO substrate assay % Inhibition at 10 µM [2],IC50 [2],GSTO binding assay (% Inhibition at 10 µM) Endogenous [4],% Inhibition of HCT116p53+/+ cell proliferation at 10 µM [3]
CN(CC(=O)N1CCOCC1)C(=O)CCl [C4-12],-4.7%,81.7%,,-29.3%,91.1% and 92.6%
CCN(CC(=O)NC1CCS(=O)(=O)C1)C(=O)CCl (stereo not shown) [C4-13],5.1%,27.2%,,7.3%,62.3% and 67.3%
CCCCN(C(=O)CCl)c1c(N)n(CC(C)C)c(=O)[nH]c1=O [C4-19],2.1%,11.8%,,-20.7%,67.3%
O=C(CCl)N(NC(=O)P(=O)(N1CCOCC1)N1CCOCC1)c1ccc(Br)cc1 [C4-20],9.3%,-7.3%,,27.6%,10.4% and 6.3%
CC(C)C(C#N)N1CCN(C(=O)CCl)CC1 (stereo not shown) [C5-2],52.5%,58.2%,559 nM,66.2%,40.2% and 61.1%
O=C(CCl)N1CCN(c2ccc(O)cc2)CC1 [C5-4],13.5%,41.0%,,33.4%,81.9% and 84.4%
COc1ccc(N2CCN(C(=O)CCl)CC2)cc1 [C5-5],44.2%,78.6%,,51.5%,-16.3%
O=C(CCl)N1CCN(Cc2ccc(Br)s2)CC1 [C5-10],59.8%,68.3%,411 nM,55.8%,71.5% and 90.4%
N#CC(c1cccs1)N1CCN(C(=O)CCl)CC1 (stereo not shown) [C5-11],57.7%,5.7%,,62.9%,19.6%
Cc1ccc(C)c(S(=O)(=O)N2CCN(C(=O)CCl)CC2)c1 [C5-12],66.0%,84.9%,,47.1%,7.3%
O=C(CCl)N1CCN(S(=O)(=O)C=Cc2ccccc2)CC1 [C5-16],82.7%,2.4%,,61.7%,48.3% and 46.5%
COc1ccc(C2=NN(C(=O)CCl)C(c3cccc(OC)c3OC)C2)cc1 (stereo not shown) [C5-21],65.0%,40.0%,,28.9%,78.2% and 83.6%
O=C(CCl)N1N=C(c2cccs2)CC1c1ccco1 (stereo not shown) [C5-22],68.6%,1.0%,,22.7%,41.2%

# Second part, led by results:
GSTO binding assay (% Inhibition at 10 µM) Recombinant [1],GSTO substrate assay % Inhibition at 10 µM [2],IC50 [2],GSTO binding assay (% Inhibition at 10 µM) Endogenous [4],SMILES,% Inhibition of HCT116p53+/+ cell proliferation at 10 µM [3]
40.4%,73.0%,3800 nM,58.5%,O=C(CCl)N(CC(F)(F)F)c1ccc(Cl)cc1 [C4-1],76.2% and 81.4%
53.2%,78.6%,1070 nM,52.8%,N#CCCN(C(=O)CCl)c1cccc(C(F)(F)F)c1 [C4-2],84.1% and 93.6%
-8.2%,5.0%,,15.9%,C=CCN(C(=O)CCl)c1nc(-c2ccc(Cl)c(Cl)c2)cs1 [C4-5],9.9% and 16.9%
55.2%,29.3%,,49.5%,COc1ccc2cc(CN(C)C(=O)CCl)ccc2c1 [C4-6],44.1% and 68.5%
-36.4%,1.8%,,53.0%,CN(CC(=O)Nc1c(Cl)cccc1Cl)C(=O)CCl [C4-7],81.8%
59.5%,97.2%,237 nM,53.0%,CN(CC1COc2ccccc2O1)C(=O)CCl (stereo not shown) [C4-8],70.7%
66.4%,99.5%,1950 nM,53.1%,CN(Cc1cnn(-c2ccccc2)c1)C(=O)CCl [C4-10],82.1%
60.0%,103.4%,2360 nM,51.8%,CCN(Cc1ccc2c(c1)OCO2)C(=O)CCl [C4-11],2.8%
45.2%,89.1%,,56.8%,NC(=O)CCN(Cc1ccccc1)C(=O)CCl [C4-14],70.3% and 75%
65.8%,98.2%,,34.0%,O=C(CCl)N(Cc1ccccc1)Cc1ccco1 [C4-15],-6.8% and -5.5%
66.3%,32.6%,,30.0%,Cc1cccc2sc(N(Cc3ccccc3)C(=O)CCl)nc12 [C4-16],86.3% and 89.8%
9.8%,23.3%,,20.6%,Cc1cccc(C(O)(C(=O)NN(C(=O)CCl)C2CCCCC2)c2cccc(C)c2)c1 [C4-21],50.6% and 54.9%
9.4%,59.8%,,61.5%,O=C(CCl)N1CCN(c2ccccc2F)CC1 [C5-3],28.2%
65.1%,72.8%,338 nM,53.1%,O=C(CCl)N1CCN(Cc2ccccc2F)CC1 [C5-7],-2.0% and -4.5%
62.3%,93.8%,293 nM,75.7%,N#CC(c1ccccc1)N1CCN(C(=O)CCl)CC1 (stereo not shown) [C5-8],82.6% and 87.3%
62.3%,83.7%,381 nM,52.8%,O=C(CCl)N1CCN(Cc2cccc3ccccc23)CC1 [C5-9],68.4% and 79.3%
61.1%,98.1%,156 nM,66.2%,N#Cc1ccccc1S(=O)(=O)N1CCN(C(=O)CCl)CC1 [C5-13],81.1% and 55.9%
54.9%,83.7%,4110 nM,69.2%,NC(=O)C1CN(C(=O)CCl)c2ccccc2O1 (stereo not shown) [C5-24],79.8% and 87.3%
